From ChEMBL document CHEMBL5143662, “Discovery of EP300/CBP histone acetyltransferase inhibitors through scaffold hopping of 1,4-oxazepane ring” (Bioorg Med Chem Lett, 2022)
pIC50: −log10 of the molar value. Converted amounts (≈) assume the structure as drawn.

Tests used:
[1] = molecular target: T1, Histone acetyltransferase p300 (Homo sapiens, UniProt Q09472); test: Inhibition of N-terminal His tagged human EP300 (1159-1666 residues) expressed in Escherichia coli BL21 (DE3) using biotinylated H4 (1 to 25)-GSGSK peptide as substrate incubated for 1 hr by AlphaLISA assay
T1 sequence (Q09472 whole entry, the tested form may be a part): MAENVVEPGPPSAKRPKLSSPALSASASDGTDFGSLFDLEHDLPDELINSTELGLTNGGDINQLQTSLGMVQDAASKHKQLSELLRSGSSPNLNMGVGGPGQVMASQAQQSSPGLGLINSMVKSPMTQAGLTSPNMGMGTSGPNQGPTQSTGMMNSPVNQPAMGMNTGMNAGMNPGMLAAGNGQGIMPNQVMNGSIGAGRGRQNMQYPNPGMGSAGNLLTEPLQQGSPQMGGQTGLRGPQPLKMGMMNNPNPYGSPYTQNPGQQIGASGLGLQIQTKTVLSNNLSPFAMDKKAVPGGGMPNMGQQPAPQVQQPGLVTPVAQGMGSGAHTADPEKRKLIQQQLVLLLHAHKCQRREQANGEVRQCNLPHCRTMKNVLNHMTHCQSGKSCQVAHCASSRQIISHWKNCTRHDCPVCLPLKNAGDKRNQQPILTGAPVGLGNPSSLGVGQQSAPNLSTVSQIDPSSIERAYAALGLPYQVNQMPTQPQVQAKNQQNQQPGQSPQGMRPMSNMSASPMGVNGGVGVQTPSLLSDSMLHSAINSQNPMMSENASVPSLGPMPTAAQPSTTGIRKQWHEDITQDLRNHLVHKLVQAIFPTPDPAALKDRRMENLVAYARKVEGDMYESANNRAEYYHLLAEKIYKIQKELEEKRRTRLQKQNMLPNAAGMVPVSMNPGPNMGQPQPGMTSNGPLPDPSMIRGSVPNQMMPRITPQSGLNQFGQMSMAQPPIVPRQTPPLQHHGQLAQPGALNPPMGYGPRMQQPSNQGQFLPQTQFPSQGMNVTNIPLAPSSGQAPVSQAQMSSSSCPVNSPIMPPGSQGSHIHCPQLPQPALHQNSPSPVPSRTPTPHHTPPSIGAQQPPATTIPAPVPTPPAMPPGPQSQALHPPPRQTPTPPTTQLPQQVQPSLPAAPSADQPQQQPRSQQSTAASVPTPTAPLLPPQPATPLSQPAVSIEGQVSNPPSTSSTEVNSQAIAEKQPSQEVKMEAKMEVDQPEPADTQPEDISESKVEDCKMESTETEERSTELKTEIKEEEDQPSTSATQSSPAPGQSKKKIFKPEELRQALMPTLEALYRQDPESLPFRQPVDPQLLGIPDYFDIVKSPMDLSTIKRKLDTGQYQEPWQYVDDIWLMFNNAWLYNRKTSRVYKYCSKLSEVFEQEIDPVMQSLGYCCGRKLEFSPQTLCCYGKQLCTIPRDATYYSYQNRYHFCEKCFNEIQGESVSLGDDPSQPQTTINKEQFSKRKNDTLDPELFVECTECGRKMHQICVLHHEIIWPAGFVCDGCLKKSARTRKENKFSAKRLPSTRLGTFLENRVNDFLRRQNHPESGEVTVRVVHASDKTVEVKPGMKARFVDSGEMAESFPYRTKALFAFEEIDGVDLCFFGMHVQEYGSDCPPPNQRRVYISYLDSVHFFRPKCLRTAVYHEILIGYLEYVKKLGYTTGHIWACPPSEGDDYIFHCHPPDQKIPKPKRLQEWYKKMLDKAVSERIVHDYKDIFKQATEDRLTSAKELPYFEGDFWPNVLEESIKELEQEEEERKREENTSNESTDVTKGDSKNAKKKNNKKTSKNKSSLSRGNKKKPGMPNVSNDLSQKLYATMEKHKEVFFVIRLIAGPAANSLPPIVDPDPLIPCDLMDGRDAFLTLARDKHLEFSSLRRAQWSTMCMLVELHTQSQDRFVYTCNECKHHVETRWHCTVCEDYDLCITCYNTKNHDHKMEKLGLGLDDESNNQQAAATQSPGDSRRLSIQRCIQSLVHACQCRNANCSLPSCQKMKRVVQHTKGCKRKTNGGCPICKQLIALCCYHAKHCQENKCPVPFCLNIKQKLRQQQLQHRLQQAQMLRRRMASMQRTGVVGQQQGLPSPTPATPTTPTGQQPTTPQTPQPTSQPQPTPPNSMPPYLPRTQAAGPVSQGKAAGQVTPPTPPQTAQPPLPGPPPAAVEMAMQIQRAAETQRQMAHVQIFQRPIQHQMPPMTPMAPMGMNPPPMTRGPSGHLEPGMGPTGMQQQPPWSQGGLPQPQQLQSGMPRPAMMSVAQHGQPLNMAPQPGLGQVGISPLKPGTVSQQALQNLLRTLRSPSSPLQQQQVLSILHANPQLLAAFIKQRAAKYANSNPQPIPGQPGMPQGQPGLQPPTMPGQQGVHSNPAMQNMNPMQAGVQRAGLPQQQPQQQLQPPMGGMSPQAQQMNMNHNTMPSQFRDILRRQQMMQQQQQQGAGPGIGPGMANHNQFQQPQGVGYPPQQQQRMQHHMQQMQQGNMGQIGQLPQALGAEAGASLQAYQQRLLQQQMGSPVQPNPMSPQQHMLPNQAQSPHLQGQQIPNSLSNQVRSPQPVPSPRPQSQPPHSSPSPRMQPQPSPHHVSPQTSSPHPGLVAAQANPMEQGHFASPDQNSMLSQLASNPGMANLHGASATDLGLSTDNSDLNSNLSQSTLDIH

[2] = molecular target: T1, Histone acetyltransferase p300; test: Inhibition of EP300 in human LK2 cells assessed as reduction in intracellular histone H3 acetylation at lysine 27 residue incubated for 3 hrs by chemiluminescence based ELISA; type: cell-based
[3] = Metabolic stability in mouse liver microsomes assessed as parent compound remaining measured after 0.5 hr; type: ADME, Microsome; settings: read-out: Stability
[4] = molecular target: T2, CREB-binding protein (Homo sapiens, UniProt Q92793); test: Inhibition of CBP (unknown origin) using biotinylated H4 (1 to […])-GSGSK peptide as substrate incubated for 1 hr by AlphaLISA assay
Target sequence in this assay (Q92793 whole entry): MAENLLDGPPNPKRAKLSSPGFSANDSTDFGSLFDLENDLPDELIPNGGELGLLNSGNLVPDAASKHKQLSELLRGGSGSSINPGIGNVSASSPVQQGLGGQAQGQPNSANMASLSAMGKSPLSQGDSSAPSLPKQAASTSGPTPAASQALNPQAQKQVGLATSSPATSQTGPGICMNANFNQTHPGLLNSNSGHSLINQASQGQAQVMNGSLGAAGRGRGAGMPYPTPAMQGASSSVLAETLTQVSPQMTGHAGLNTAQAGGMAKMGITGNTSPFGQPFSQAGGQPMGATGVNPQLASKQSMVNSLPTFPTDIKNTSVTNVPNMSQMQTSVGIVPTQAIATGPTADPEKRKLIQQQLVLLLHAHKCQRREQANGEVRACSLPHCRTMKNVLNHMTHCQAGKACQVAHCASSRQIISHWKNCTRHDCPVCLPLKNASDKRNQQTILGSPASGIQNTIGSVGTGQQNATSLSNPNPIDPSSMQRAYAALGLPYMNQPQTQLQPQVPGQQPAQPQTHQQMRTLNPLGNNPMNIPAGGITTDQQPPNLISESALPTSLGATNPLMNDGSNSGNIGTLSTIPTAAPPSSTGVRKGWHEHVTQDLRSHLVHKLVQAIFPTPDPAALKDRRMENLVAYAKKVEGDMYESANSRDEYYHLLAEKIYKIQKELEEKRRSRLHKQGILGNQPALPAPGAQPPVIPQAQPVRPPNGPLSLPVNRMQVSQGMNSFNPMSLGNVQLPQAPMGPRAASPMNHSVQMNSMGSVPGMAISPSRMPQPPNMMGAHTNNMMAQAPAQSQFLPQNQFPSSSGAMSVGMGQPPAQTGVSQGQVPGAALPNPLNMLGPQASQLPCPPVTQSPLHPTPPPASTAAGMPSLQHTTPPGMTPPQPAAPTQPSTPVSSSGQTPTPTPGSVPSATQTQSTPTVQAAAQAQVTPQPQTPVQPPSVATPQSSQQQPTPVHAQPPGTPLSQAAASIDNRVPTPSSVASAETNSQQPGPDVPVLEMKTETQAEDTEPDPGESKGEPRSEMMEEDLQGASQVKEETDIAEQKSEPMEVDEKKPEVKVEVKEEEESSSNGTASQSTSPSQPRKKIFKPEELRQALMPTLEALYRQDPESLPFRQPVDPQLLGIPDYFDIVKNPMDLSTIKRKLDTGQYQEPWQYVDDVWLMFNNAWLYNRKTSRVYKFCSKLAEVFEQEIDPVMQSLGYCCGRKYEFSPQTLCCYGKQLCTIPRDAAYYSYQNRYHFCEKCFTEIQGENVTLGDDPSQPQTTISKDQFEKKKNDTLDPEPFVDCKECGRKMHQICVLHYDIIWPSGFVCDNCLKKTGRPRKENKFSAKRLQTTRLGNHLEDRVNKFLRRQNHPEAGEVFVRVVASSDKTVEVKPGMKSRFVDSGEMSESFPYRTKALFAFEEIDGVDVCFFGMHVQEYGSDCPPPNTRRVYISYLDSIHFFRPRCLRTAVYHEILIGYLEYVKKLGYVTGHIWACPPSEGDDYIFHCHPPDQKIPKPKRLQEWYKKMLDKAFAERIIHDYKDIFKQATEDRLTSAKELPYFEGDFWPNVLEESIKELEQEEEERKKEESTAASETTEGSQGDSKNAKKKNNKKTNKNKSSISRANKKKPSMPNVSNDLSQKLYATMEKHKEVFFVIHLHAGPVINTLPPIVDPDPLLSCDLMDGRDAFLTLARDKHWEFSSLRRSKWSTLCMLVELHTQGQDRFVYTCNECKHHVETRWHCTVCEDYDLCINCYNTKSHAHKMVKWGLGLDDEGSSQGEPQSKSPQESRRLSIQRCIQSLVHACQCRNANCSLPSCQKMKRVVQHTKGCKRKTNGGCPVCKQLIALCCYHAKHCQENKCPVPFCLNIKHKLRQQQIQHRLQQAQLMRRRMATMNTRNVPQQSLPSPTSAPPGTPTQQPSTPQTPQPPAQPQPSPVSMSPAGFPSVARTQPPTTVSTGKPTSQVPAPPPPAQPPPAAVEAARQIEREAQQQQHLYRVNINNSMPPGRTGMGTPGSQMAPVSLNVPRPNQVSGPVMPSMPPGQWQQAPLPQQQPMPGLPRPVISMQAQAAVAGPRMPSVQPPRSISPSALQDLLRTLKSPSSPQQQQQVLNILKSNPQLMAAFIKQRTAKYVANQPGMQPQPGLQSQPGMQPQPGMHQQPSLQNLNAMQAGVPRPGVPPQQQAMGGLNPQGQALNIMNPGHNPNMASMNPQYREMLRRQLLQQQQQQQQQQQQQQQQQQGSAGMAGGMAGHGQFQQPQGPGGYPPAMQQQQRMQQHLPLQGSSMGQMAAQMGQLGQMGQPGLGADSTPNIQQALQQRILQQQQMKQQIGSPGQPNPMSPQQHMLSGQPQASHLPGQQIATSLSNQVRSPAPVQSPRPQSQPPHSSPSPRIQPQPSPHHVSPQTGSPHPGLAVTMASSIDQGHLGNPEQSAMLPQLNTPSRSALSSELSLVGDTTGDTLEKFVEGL

[5] = molecular target: Histone acetyltransferase KAT5 (Homo sapiens, UniProt Q92993); test: Inhibition of GST tagged human TIP60 expressed in Sf9 cells using biotinylated H4 (1 to 25)-GSGSK peptide as substrate incubated for 1 hr by AlphaLISA assay
[6] = molecular target: Histone acetyltransferase KAT7 (Homo sapiens, UniProt O95251); test: Inhibition of MYST2 (unknown origin) using biotinylated H4 (1 to […])-GSGSK peptide as substrate incubated for 1 hr by AlphaLISA assay
[7] = molecular target: Histone acetyltransferase KAT6B (Homo sapiens, UniProt Q8WYB5); test: Inhibition of MYST4 (unknown origin) using biotinylated H4 (1 to […])-GSGSK peptide as substrate incubated for 1 hr by AlphaLISA assay
[8] = molecular target: Histone acetyltransferase KAT2B (Homo sapiens, UniProt Q92831); test: Inhibition of GST tagged human PCAF (431 to end residues) expressed in Sf9 cells using biotinylated H3 (1 to 21)-GGK peptide as substrate incubated for 1 hr by AlphaLISA assay
[9] = molecular target: Histone acetyltransferase KAT2A (Homo sapiens, UniProt Q92830); test: Inhibition of GST tagged human GCN5 (323 to end residues) expressed in Sf9 cells using biotinylated H3 (1 to 21)-GGK peptide as substrate incubated for 1 hr by AlphaLISA assay
[10] = molecular target: T2, CREB-binding protein; test: Inhibition of CBP (unknown origin) at 50 uM using biotinylated H4 (1 to 25)-GSGSK peptide as substrate incubated for 1 hr by AlphaLISA assay relative to control
[11] = Inhibition of SOX2 mRNA expression in human LK2 cells incubated for 6 hrs by RT-qPCR analysis; type: functional, cell-based; settings: LK-2, 6 h
[12] = Solubility of the compound at pH 1.2; type: physicochemical; settings: buffer
[13] = Solubility of the compound at pH 6.8; type: physicochemical; settings: buffer
[14] = Lipophilicity, logD of compound; type: physicochemical; settings: octanol/water
[15] = Permeability of compound at pH 7.4 by PAMPA assay; type: ADME; settings: read-out: permeability
[16] = Permeability of compound at pH 5.0 by PAMPA assay; type: ADME; settings: read-out: permeability
[17] = Protein binding in mouse plasma assessed as unbound fraction; type: ADME, cell-free
[18] = system: LK-2; test: Antitumor activity against human LK2 cells xenografted in BALB/c nude mouse assessed as suppression of SOX2 mRNA level in […] at 50 to 200 mg/kg, po and measured after 6 hrs by qRT-PCR analysis relative to GADPH; type: functional, organism-based; settings: dose 50-200 mg/kg, DDE = dose-dependent effect
[19] = system: LK-2; test: Antitumor activity against human LK2 cells xenografted in BALB/c nude mouse assessed as suppression of SOX2 mRNA level in tumor at 50 to 200 mg/kg, po and measured after 6 hrs by qRT-PCR analysis relative to GADPH; type: functional, organism-based; settings: dose 50-200 mg/kg, DDE = dose-dependent effect

pIC50 [1]	pIC50 [2]	remaining at 0.5 h [3]	SMILES	further results
6.77	6.38	–	COc1ccc(C2(C(=O)N3CCC[C@@H]3C(=O)Nc3cccc4[nH]ncc34)CCCCC2)cc1	–
6.85	6.21	–	COc1ccc(C2(C(=O)N3CCOCC(Cc4cccc5[nH]ncc45)C3)CCCCC2)cc1 (stereo not given)	–
6.89	6.42	–	COc1ccc(C2(C(=O)N3CCOCC(Cc4cccc5[nH]ncc45)C3)CCCC2)cc1 (stereo in doubt; 3)	–
6.74	–	10%	COc1ccc(C2(C(=O)N3CCC[C@@H]3C(=O)Nc3cccc4[nH]ncc34)CCCC2)cc1	–
6.21	5.65	–	COc1ccc(C2(C(=O)N3CCOCC(Cc4cccc5[nH]ncc45)C3)CCOCC2)cc1 (stereo not given)	–
7.30	6.89	–	COc1ccc(C2(C(=O)N3CCOCC(Cc4cccc5[nH]ncc45)C3)CCCC2)cc1 (single isomer, unassigned; (+))	–
–	< 4.60	–	COc1ccc(C2(C(=O)N3CCOCC(Cc4cccc5[nH]ncc45)C3)CCCC2)cc1 (single isomer, unassigned; (-))	–

Continued, compound first:

SMILES	pIC50 [1]	pIC50 [2]	remaining at 0.5 h [3]	further results
COc1ccc(C2(C(=O)N(C)CC(=O)Nc3cccc4[nH]ncc34)CCCCC2)cc1	6.72	6.00	–	–
COc1ccc(C2(C(=O)N3C[C@@H](O)C[C@@H]3C(=O)Nc3cccc4[nH]ncc34)CCCC2)cc1	6.04	5.84	57%	–
CC1=NN(c2ccc(C(=O)O)cc2)C(=O)/C1=C\c1ccc(-c2cc(C)c(C)cc2[N+](=O)[O-])o1	–	–	–	pIC50 [4]: < 4.30; pIC50 [5]: 4.43; pIC50 [6]: 5.11; pIC50 [7]: 4.68; pIC50 [8]: 4.41; pIC50 [9]: 4.32; inhibition [10]: 29%
COc1ccc(C2(C(=O)N3C[C@H](O)C[C@@H]3C(=O)Nc3cccc4[nH]ncc34)CCCC2)cc1	–	5.99	47%	–
COc1ccc(C2(C(=O)N3CS(=O)(=O)C[C@@H]3C(=O)Nc3cccc4[nH]ncc34)CCCC2)cc1	6.82	6.35	37%	pIC50 [11]: 6.15; solubility [12]: 63 µg/mL (≈ 131 µM); solubility [13]: 50 µg/mL (≈ 104 µM); logD [14]: 3.2; Papp [15]: > 50 ×10⁻⁶ cm/s; Papp [16]: > 50 ×10⁻⁶ cm/s; fraction unbound [17]: 0.952; pIC50 [4]: 7.40; Activity [18]: Dde; Activity [19]: Dde
COc1ccc(C2(C(=O)N(C)[C@H](C)C(=O)Nc3cccc4[nH]ncc34)CCCC2)cc1	6.66	5.30	–	–
COc1ccc(C2(C(=O)N3C[C@H](F)C[C@@H]3C(=O)Nc3cccc4[nH]ncc34)CCCC2)cc1	7.25	6.34	5%	–
